# Measurements from patent US11179368B2, “Substituted indoline derivatives as dengue viral replication inhibitors” (JANSSEN PHARMACEUTICALS, INC., priority 2017, dated 2021).
# Where a name gives a salt, the structure may show the parent alone. Read-outs that look alike come from different tables or passages of the source.
# What was measured:
# DENV-2 16681 strain = test: DENV-2 antiviral assay (eGFP-labeled virus in Vero cells); assay type: cell-based, Dengue virus; conditions: for EC50: DENV-2 16681 eGFP, Vero cells, MOI 0.5, 3 days; for SI: SI=CC50/EC50, DENV-2 antiviral assay
# DENV-1 strain TC974#666 = test: Tetravalent RT-qPCR assay, serotype 1; assay type: cell-based, Dengue virus; conditions: for EC50: Dengue virus, DENV1, 72 h, RT-qPCR serotype 1 TC974#666, Vero cells, day 3; for SI: RT-qPCR serotype 1 TC974#666
# Protocol: (§1) The antiviral activity of the compounds of the invention was tested against DENV-1 strain TC974#666 (NCPV), DENV-2 strain 16681, DENV-3 strain H87 (NCPV) and DENV-4 strain H241 (NCPV) in a RT-qPCR assay. Therefore, Vero cells were infected with either DENV-1, or -2, or -3, or -4 in the presence or absence of test compounds. At day 3 post-infection, the cells were lysed and cell lysates were used to prepare cDNA of both a viral target (the 3′UTR of DENV; Table 2) and a cellular reference gene (1-actin, Table 2). Subsequently, a duplex real time PCR was performed on a Lightcycler480 instrument. The generated Cp value is inversely proportional to the amount of RNA expression of these targets. Inhibition of DENV replication by a test compound results in a shift of Cp's for the 3′UTR gene. On the other hand, if a test compound is toxic to the cells, a similar effect on β-actin expression will be observed. The comparative ΔΔCp method is used to calculate EC50, which is based on the relative gene expression of the target gene (3′UTR) normalized with the cellular housekeeping gene (β-actin). In addition, CC50 values are determined based on the Cp values acquired for the housekeeping gene β-actin.
# (§2) The culture medium consisted of minimal essential medium supplemented with 2% of heat-inactivated fetal calf serum, 0.04% gentamycin (50 mg/mL) and 2 mM of L-glutamine. Vero cells, obtained from ECACC, were suspended in culture medium and 75 μL/well was added in 96-well plates (10000 cells/well), which already contain the antiviral compounds. […] In addition, each plate contains wells which are assigned as virus controls (containing cells and virus in the absence of compound) and cell controls (containing cells in the absence of virus and compound). Once the cells were added in the plates, the plates were incubated in a fully humidified incubator (37° C., 5% CO2) until the next day. Dengue viruses serotype-1, 2, 3 and 4 were diluted in order to obtain a Cp of ˜22-24 in the assay. Therefore, 25 μL of virus suspension was added to all the wells containing test compound and to the wells assigned as virus control. In parallel, 25 μL of culture medium was added to the cell controls. Next, the plates were incubated for 3 days in a fully humidified incubator (37° C., 5% CO2). After 3 days, the supernatant was removed from the wells and the cells were washed twice with ice-cold PBS (˜100 μL). The cell pellets within the 96-well plates were stored at −80° C. for at least 1 day. Next, RNA was extracted using the Cells-to-CT™ lysis kit, according to the manufacturer's guideline (Life Technologies). The cell lysates can be stored at −80° C. or immediately used in the reverse transcription step.
# (§3) In preparation of the reverse transcription step, mix A (table 3A) was prepared and 7.57 μL/well was dispensed in a 96-well plate. After addition of 5 μL of the cell lysates, a five minute denaturation step at 75° C. was performed (table 3B). Afterwards, 7.43 μL of mix B was added (table 3C) and the reverse transcription step was initiated (table 3D) to generate cDNA.
# (§4) Finally, a RT-qPCR mix was prepared, mix C (table 4A), and 22.02 μL/well was dispensed in 96-well LightCycler qPCR plates to which 3 μL of cDNA was added and the qPCR was performed according to the conditions in table 4B on a LightCycler 480.
# (§5) Using the LightCycler software and an in-house LIMS system, dose response curves for each compound were calculated and the half maximal effective concentration (EC50) and the half maximal cytotoxic concentration (CC50) were determined (Tables 5-8).
# DENV-2 strain 16681 = test: Tetravalent RT-qPCR assay, serotype 2; assay type: cell-based, Dengue virus; conditions: for EC50: Dengue virus, DENV2, 72 h, RT-qPCR serotype 2 16681, Vero cells, day 3; for SI: RT-qPCR serotype 2 16681
# Protocol: as §1, §2, §3, §4, §5
# DENV-3 strain H87 = test: Tetravalent RT-qPCR assay, serotype 3; assay type: cell-based, Dengue virus; conditions: for EC50: Dengue virus, DENV3, 72 h, RT-qPCR serotype 3 H87, Vero cells, day 3; for SI: RT-qPCR serotype 3 H87
# Protocol: as §1, §2, §3, §4, §5
# DENV-4 strain H241 = test: Tetravalent RT-qPCR assay, serotype 4; assay type: cell-based, Dengue virus; conditions: for EC50: Dengue virus; for SI: RT-qPCR serotype 4 H241
# Protocol: as §1, §2, §3, §4, §5
# in vitro [1] = assay type: cell-based; conditions: African green monkey, CC50
# Protocol: as §1, §2, §3, §4, §5
# Vero cells [2] = conditions: African green monkey
# in vitro [3] = conditions: African green monkey
# Vero cells [4] = test: in vitro; assay type: cell-based; conditions: African green monkey, 3 days
# Protocol: as §1, §2, §3, §4, §5
# [5] = DENV4, 72 h, RT-qPCR serotype 4 H241, Vero cells, day 3, read-out: EC50
SMILES,melting point,EC50 (DENV-2 16681 strain),SI (DENV-2 16681 strain),EC50 (DENV-1 strain TC974#666),SI (DENV-1 strain TC974#666),EC50 (DENV-2 strain 16681),SI (DENV-2 strain 16681),EC50 (DENV-3 strain H87),SI (DENV-3 strain H87),"EC50 (DENV-4 strain H241; DENV4, Vero, 72 h)",SI (DENV-4 strain H241),CC50 at 3 days (in vitro [1]),CC50 (Vero cells [2]),EC50 (DENV-4 strain H241; [5]),CC50 (in vitro [3]),CC50 (Vero cells [4])
"COc1cc(NC(C(=O)N2CCc3ccc(OC(F)(F)F)cc32)c2ccc(Cl)cc2OCCCC(=O)O)cc(S(C)(=O)=O)c1 (racemic) (as salt: HCl) (hydrate or solvate) [Compound 9, 4-(5-chloro-2-(1-((3-methoxy-5-(methylsulfonyl)phenyl)amino)-2-oxo-2-(6-(trifluoromethoxy)indolin-1-yl)ethyl)phenoxy)butanoic acid]",155 °C,,,,,,,,,,,,,,,
"COc1cc(NC(C(=O)N2CCc3ccc(C(F)(F)F)cc32)c2ccc(F)cc2OCCO)cc(S(C)(=O)=O)c1 (single isomer, unassigned) [Compound 1B]",,1.4 nM,>1980,1.5 nM,>2860,1.1 nM,4670,20 nM,>127,130 nM,23,> 2500 nM,3400 nM,,,
"COc1cc(NC(C(=O)N2CCc3ccc(OC(F)(F)F)cc32)c2ccc(F)cc2OCCO)cc(S(C)(=O)=O)c1 (single isomer, unassigned) [Compound 3B]",,0.61 nM,16300,1.1 nM,>3640,0.9 nM,4760,13 nM,>444,,>32,> 2500 nM,8700 nM,72 nM,,
"COc1cc(NC(C(=O)N2CCc3ccc(C(F)(F)F)cc32)c2ccc(Cl)cc2OCCO)cc(S(C)(=O)=O)c1 (single isomer, unassigned) [Compound 4A]",,0.41 nM,15000,0.75 nM,>5470,0.45 nM,11700,13 nM,>234,,69,> 2500 nM,,44 nM,6000 nM,
"COc1cc(NC(C(=O)N2CCc3ccc(C(F)(F)F)cc32)c2ccc(Cl)cc2OCCO)cc(S(C)(=O)=O)c1 (single isomer, unassigned) [Compound 4B]",,16 nM,693,,,,,,,,,,11000 nM,,,
"COc1cc(NC(C(=O)N2CCc3cc(OC)c(C(F)(F)F)cc32)c2ccc(Cl)cc2OCCO)cc(S(C)(=O)=O)c1 (single isomer, unassigned) [Compound 5B]",,0.23 nM,>16800,0.94 nM,8640,0.24 nM,>17100,6.7 nM,>752,,86,,8500 nM,26 nM,,
"COc1cc(NC(C(=O)N2CCc3ccc(OC(F)(F)F)cc32)c2ccc(Cl)cc2OCCO)cc(S(C)(=O)=O)c1 (single isomer, unassigned) [Compound 6A]",,0.23 nM,>12000,0.16 nM,>41300,0.16 nM,>12600,2.6 nM,>1480,,119,> 2500 nM,,26 nM,7300 nM,
"COc1cc(NC(C(=O)N2CCc3ccc(OC(F)(F)F)cc32)c2ccc(Cl)cc2OCCO)cc(S(C)(=O)=O)c1 (single isomer, unassigned) [Compound 6B]",,20 nM,492,,,,,,,,,,10000 nM,,,
"COc1cc(NC(C(=O)N2CCc3ccc(C(F)(F)F)cc32)c2ccc(Cl)cc2OCCCC(=O)O)cc(S(C)(=O)=O)c1 (single isomer, unassigned) [Compound 7B]",,0.25 nM,90600,0.13 nM,>19200,0.19 nM,>13500,5.2 nM,>473,,>186,> 2500 nM,11000 nM,24 nM,,> 2500 nM
"COc1cc(NC(C(=O)N2CCc3cc(OC)c(C(F)(F)F)cc32)c2ccc(Cl)cc2OCCCC(=O)O)cc(S(C)(=O)=O)c1 (single isomer, unassigned) [Compound 8B]",,1.2 nM,6780,1.2 nM,10500,0.3 nM,54300,19 nM,796,,88,,14000 nM,84 nM,,
"COc1cc(NC(C(=O)N2CCc3ccc(OC(F)(F)F)cc32)c2ccc(Cl)cc2OCCCC(=O)O)cc(S(C)(=O)=O)c1 (single isomer, unassigned) [Compound 9B]",,0.15 nM,83000,0.1 nM,>45500,0.068 nM,>56500,1.7 nM,>1840,,1390,> 2500 nM,13000 nM,7.2 nM,,
